Experimental data taken from patent US20260076974A1, “COMPOSITIONS FOR PREVENTING AND TREATING INFECTION COMPRISING AN ARTIFICIAL SWEETENER” (Brunel University London, priority 2022, published 2026).
Where two headings read alike, the source gives them in different places.

Tests used:
A. baumannii AB5075 [1] = tested on: A. baumannii AB5075; parameters: species or system Acinetobacter baumannii; conditions: ace-K dressing applied for 1 hour
Protocol: In this model, porcine skin was either burnt or lacerated and the wound infected with A. baumannii AB5075 and left for 3.5 hours to allow a biofilm to form. The dressing was applied for 1 hour and viable cells were collected after treatment. […] Samples were tested in biological triplicate with technical quadruplets.
(8% (w/w)), potassium tetraborate (3% (w/w)), and PVA (3% ((w/w)) were added into a beaker and mixed with deionized water. The mixture was placed in a water bath and heated at 80° C. for three hours with watch glass while being swirled with a stirring rod every 1 hour. Once hydrogels had been obtained, they were placed in a petri dish with custom-made moulds.

P. aeruginosa PA14 [2] = assay: Growth inhibition assay in nutrient medium (OD600); assay type: cell-based, Pseudomonas aeruginosa
A. baumannii AB5075 [3] = assay: Growth inhibition assay in LB medium (OD600); assay type: cell-based, Acinetobacter baumannii
P. aeruginosa PA14 [4] = assay: Crystal violet biofilm formation assay / minimum biofilm inhibition concentration; assay type: cell-based, Pseudomonas aeruginosa
Protocol: (§1) Biofilm formation is linked to 80% of hospital-associated infections and is a major factor in the routine failure of antibiotic therapy.
(§2) All samples were exposed to the artificial sweeteners in LB medium for 19 hours before crystal violet biofilm assay was performed. […] The data present the mean of three biological replicates±SD. *p≤0.05, *p≤0.001 versus the bacterial growth in control samples.
(§3) All samples were exposed to artificial sweeteners for 19 hours before crystal violet biofilm assay was performed.

A. baumannii [5] = assay: as above; assay type: cell-based, Acinetobacter baumannii
Protocol: as §1, §2, §3

[6] = tested on: A. baumannii gene expression; conditions: |logFC|>1 and p<.05
Protocol: Cells were spun down and washed in RNAlater to preserve mRNA. RNA was isolated using a Qiagen RNAeasy Kit with column DNAase digestion. RNA integrity was determined using a Bioanalyzer. Samples were further processed for RNA sequencing on an Illumina MiSeq with 12 million reads per sample. Quality control and adapter trimming was performed with bcl2fastq.

A. baumannii [7] = tested on: A. baumannii
Source text: Motility is a central facet of bacterial virulence and facilitates bacterial dissemination to the blood stream or other sites within an infected host. […] To validate the gene expression data, we performed twitching assays at a range of different concentrations.

A. baumannii AB5075 [8] = conditions: established 18 hour biofilm, 8.85% ace-K, 24 hours
Protocol: (§4) Plates were incubated for 18 hours at 37° C. and 180 rpm to allow biofilms to form. Following incubation, growth medium was removed from the wells and biofilms were washed three times with 200 μL of sterile PBS to remove any unbound planktonic cells. […] Plates were incubated for a further 24 hours at 37° C. and 180 rpm. Following this treatment biofilms were stained with 0.1% crystal violet as detailed above. Reduction in biofilm was represented as a percentage reduction compared to the control.
(§5) To assess the ability of artificial sweeteners to disperse biofilms, overnight cultures were diluted in 96-well plates to OD600 0.5-0.1 in growth medium. Plates were incubated for 18 h at 37° C. and 180 rpm to allow biofilms to form. Following incubation growth medium was removed and wells washed three times with 200 μl of sterile PBS to remove any unattached cells. Fresh growth medium supplemented with artificial sweetener or an appropriate vehicle control was added to the wells. Plates were incubated for a further 24 h at 37° C. and 180 rpm. Following this treatment biofilms were stained with 0.1% crystal violet as detailed above. Biofilm dispersal was represented as a percentage reduction compared with the control.

P. aeruginosa PA14 [9] = conditions: established 18 hour biofilm, 8.85% ace-K, 24 hours
Protocol: as §4, §5

A. baumannii cells = conditions: live cell imaging over time
Source text: (§6) To visualise the localisation of these membrane bulges and to gain insight into the contents of the bulges, an E. coli MG1655 strain with labelled mCherry-Fis and CFP-FtsZ was used (FIG. 62CD). Fis is a small DNA-binding protein that binds to a large number of regions of the chromosome, allowing the visualisation of the […] in living cells. FtsZ is a component of the Z ring, showing future cell division sites.

E. coli NCTC 13476 = conditions: live cell imaging over time
Source text: as §6

[10] = tested on: P. aeruginosa colony biofilms
[11] = tested on: A. baumannii colony biofilms
Staphylococcus aureus = conditions: […] ace-K versus LB control
[12] = tested on: Stenotrophomonas maltophilia
Enterococcus faecalis = conditions: […] ace-K versus LB control
A. baumannii AB5075 [13] = tested on: A. baumannii AB5075
PpilA promoter = conditions: 0, […], 0.66% or […] ace-K, 2 h
Protocol: The expression from the PpilA promoter was measured using a miniTn7T-based insertion bearing a PpilA::gfp transcriptional fusion (AB5075/miniTn7T-zeo-pilA::gfpmut3). An AB5075/miniTn7T-zeo-gfpmut3 strain, bearing the empty miniTn7T backbone, was used as a control. […] Cultures were incubated for 2 h at 37° C., 180 rpm. Then, samples were withdrawn from the cultures, washed with PBS and eventually resuspended in PBS. Two technical repeats of each sample were allocated in a 96-well plate and their OD600 and GFP fluorescence (485 nm excitation, 535 nm emission) were measured. The fluorescence readings were normalised by their respective OD600 and the baseline fluorescence obtained from the empty transposon control was subtracted from that obtained with the strain bearing the PpilA::gfpmut3 the promoter fusion measurements.

A. baumannii AB5075 [14] = conditions: […] ace-K (sub-MIC), two hours, compared to untreated control
Protocol: Cultures were incubated at 37° C. and 180 rpm shaking for two hours. Following incubation 10 μL of a 1 mg/mL DAPI solution and 10 μL of a 5 mg/mL solution of Nile Red were added to each flask before returning to the incubator for 30 mins. Once stained, cultures were centrifuged at 5000 rpm for five minutes and the supernatant discarded. Pellets were resuspended in 10 ml of sterile 4% formaldehyde in PBS and incubated in the dark for 30 mins to fix. Once fixed, samples were centrifuged at 5000 rpm and pellets were washed twice with 10 mL sterile PBS. After washing pellets were resuspended in 10 ml of sterile PBS and 10 μL of the cell suspension was spotted onto a glass slide and allowed to air dry in the dark. Three spots were prepared per flask.

[15] = LB with sweetener plus Mg2+ and Ca2+
[16] = 3% (w/v) sucralose, […] (w/v) ace-K, LB medium, 19 hours
[17] = submerged in 8.85% (w/v) ace-K solution for 1 hour
[18] = surgical gauze soaked in 8.85% ace-K, 1 hour, compared to water-soaked dressing
[19] = LB with ace-K plus Mg2+ and Ca2+
[20] = in the presence of divalent cations (CaCl2 2 mM and MgSO4 1 mM)

Source text for Klebsiella pneumoniae: N=3 biological triplicate, each with technical triplicates).

SMILES: CC1=CC(=O)[N-]S(=O)(=O)O1.[K+] [ace-K, potassium salt of 6-methyl-1,2,3-oxathiazine-4 (3H)-one 2,2-dioxide]
- log reduction in viable cells versus the water control (A. baumannii AB5075 [1]; burn model): 2.16 log
- log reduction in viable cells versus the water control (A. baumannii AB5075 [1]; laceration model): 0.5 log
- concentration showing significant / effective growth inhibition (P. aeruginosa PA14 [2]): ≥ 0.89%
- effect of Mg2+ and Ca2+ cation supplementation on the growth inhibitory effect (P. aeruginosa PA14 [2]; [15]): at least partially reverse
- bacterial growth in the presence of sweetener (P. aeruginosa PA14 [2]; […] sweetener, 19 hours, 37° C.): inhibit the growth
- concentration at which growth inhibition plateaus; no growth above (P. aeruginosa PA14 [2]; ace-K 0.09-7.08%): around 5%
- concentration showing significant / effective growth inhibition (A. baumannii AB5075 [3]): ≥ 0.89%
- effect of Mg2+ and Ca2+ cation supplementation on the growth inhibitory effect (A. baumannii AB5075 [3]; [15]): at least partially reverse
- bacterial growth in the presence of sweetener (A. baumannii AB5075 [3]; […] sweetener, 19 hours, LB medium): inhibit the growth
- concentration at which growth inhibition plateaus; no growth above (A. baumannii AB5075 [3]; ace-K 0.09-7.08%): around 5%
- biofilm formation (P. aeruginosa PA14 [4]; [16]): significantly inhibit biofilm formation
- concentration resulting in almost complete abolition of biofilm formation (P. aeruginosa PA14 [4]; 19 hours exposure): 1.77%
- concentration with significant impact on / inhibition of biofilm formation (A. baumannii [5]): 0.09%
- biofilm formation (A. baumannii [5]; [16]): significantly inhibit biofilm formation
- number of genes significantly differentially expressed [6]: 464 genes
- concentration with significant reduction in bacterial twitching motility (A. baumannii [7]): ≥ 0.33%
- twitching motility over increasing concentrations (A. baumannii [7]; AB5075, ace-K): dose-dependent decrease
- twitching motility over increasing concentrations (A. baumannii [7]; strains AB0057 and BAA 747, ace-K): dose-dependent decrease
- reduction of total biofilm biomass compared to the control (A. baumannii AB5075 [8]): 48.8%
- reduction of total biofilm biomass compared to the control (P. aeruginosa PA14 [9]): 69.7%
- cell morphology upon ace-K exposure (A. baumannii cells): stop dividing and lose structural integrity, swelling in size rapidly
- cell morphology upon ace-K exposure (E. coli NCTC 13476): filamented, extending to many times their original size before eventually, forming characteristic membrane bulges and ultimately lysing
- number of viable bacteria within the biofilm after ace-K wash [10, 17]: significant reduction
- bacteria numbers after ace-K augmented dressing [10, 18]: significant reductions
- number of viable bacteria within the biofilm after ace-K wash [11, 17]: significant reduction
- bacteria numbers after ace-K augmented dressing [11, 18]: significant reductions
- effect of Mg2+ and Ca2+ cation supplementation on the growth inhibitory effect (E. coli; [19]): at least partially reverse
- growth in LB including ace-K (E. coli; […] ace-K versus LB control): significantly inhibits the growth
- effect of Mg2+ and Ca2+ cation supplementation on the growth inhibitory effect (Klebsiella pneumoniae; [19]): at least partially reverse
- growth in LB including ace-K (Klebsiella pneumoniae; […] ace-K versus LB control): significantly inhibits the growth
- growth in LB including ace-K (Staphylococcus aureus): minor reduction in growth in the presence of ace-K, but this was not significant
- effect of Mg2+ and Ca2+ cation supplementation on the growth inhibitory effect [12, 19]: at least partially reverse
- growth in LB including ace-K ([12]; […] ace-K versus LB control): significantly inhibits the growth
- growth in LB including ace-K (Enterococcus faecalis): significantly inhibits the growth
- effect of Mg2+ and Ca2+ cation supplementation on the growth inhibitory effect (Enterobacter cloacae; [19]): at least partially reverse
- growth in LB including ace-K (Enterobacter cloacae; […] ace-K versus LB control): significantly inhibits the growth
- cell viability (A. baumannii AB5075 [13]; in the presence of cations when supplementing with ace-K): not affected
- concentration reaching transformation abolition (A. baumannii AB5075 [13]; [20]): ≥ 0.66%
- concentration with significant drop in transformability (A. baumannii AB5075 [13]; [20]): 0.33%
- concentration at which transformation is completely abolished (A. baumannii AB5075 [13]; without added cations): ≥ 0.66%
- pilA expression (GFP fluorescence normalised by OD600) (PpilA promoter): clear dose dependent response
- nuclear dye uptake (A. baumannii AB5075 [14]): significant increases
